Assay results published in BindingDB's records for doi:10.1038/sj.bjp.0702293 (Monash University, 1999).

Columns and labels:
[1] = target: 5-hydroxytryptamine receptor 7 (Rattus norvegicus, UniProt P32305)
[2] = target: 5-hydroxytryptamine receptor 7 (Cavia porcellus, UniProt P50407)
Chain of 5-hydroxytryptamine receptor 7 (Cavia porcellus, UniProt P50407) (P50407 whole entry): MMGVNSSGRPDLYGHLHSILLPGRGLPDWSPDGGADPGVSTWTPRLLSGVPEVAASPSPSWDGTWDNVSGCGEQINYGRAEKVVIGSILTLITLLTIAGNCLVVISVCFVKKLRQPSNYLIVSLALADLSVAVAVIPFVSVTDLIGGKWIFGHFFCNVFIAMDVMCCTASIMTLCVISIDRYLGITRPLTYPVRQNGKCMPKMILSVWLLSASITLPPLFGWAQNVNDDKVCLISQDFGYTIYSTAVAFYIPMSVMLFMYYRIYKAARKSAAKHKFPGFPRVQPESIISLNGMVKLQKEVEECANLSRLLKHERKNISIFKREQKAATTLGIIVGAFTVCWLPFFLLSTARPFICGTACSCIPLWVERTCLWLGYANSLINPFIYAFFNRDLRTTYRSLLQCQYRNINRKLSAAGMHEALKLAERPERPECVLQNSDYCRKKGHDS

Chain of 5-hydroxytryptamine receptor 7 (Rattus norvegicus, UniProt P32305) (P32305 whole entry): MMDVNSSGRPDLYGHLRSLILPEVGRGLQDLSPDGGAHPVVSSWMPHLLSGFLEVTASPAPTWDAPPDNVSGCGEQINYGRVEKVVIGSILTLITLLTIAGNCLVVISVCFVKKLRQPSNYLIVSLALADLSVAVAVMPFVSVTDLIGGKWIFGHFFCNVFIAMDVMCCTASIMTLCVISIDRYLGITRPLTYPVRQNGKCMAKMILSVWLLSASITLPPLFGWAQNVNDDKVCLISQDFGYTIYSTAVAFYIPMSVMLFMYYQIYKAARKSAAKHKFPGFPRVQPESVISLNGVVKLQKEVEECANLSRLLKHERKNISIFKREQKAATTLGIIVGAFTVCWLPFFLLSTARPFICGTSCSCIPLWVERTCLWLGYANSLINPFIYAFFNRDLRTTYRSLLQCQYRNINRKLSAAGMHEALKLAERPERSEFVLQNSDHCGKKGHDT

| SMILES | Ki [1] [µM] | Ki [2] [µM] |
| --- | --- | --- |
| Cc1nc2sccn2c(=O)c1CCN1CCC(=C(c2ccc(F)cc2)c2ccc(F)cc2)CC1 | 0.0251 | 0.00501 |
| Cc1nc2n(c(=O)c1CCN1CCC(c3noc4cc(F)ccc34)CC1)CCCC2 [3-{2-[4-(6-Fluoro-benzo[d]isoxazol-3-yl)-piperidin-1-yl]-ethyl}-2-methyl-6,7,8,9-tetrahydro-pyrido[1,2-a]pyrimidin-4-one(risperidone)] |  | 0.0004 |
| CCN(CC)C(=O)[C@@H]1C=C2c3cccc4[nH]cc(c34)C[C@H]2N(C)C1 [(4R,7R)-N,N-diethyl-6-methyl-6,11-diazatetracyclo[7.6.1.0^{2,7}.0^{12,16}]hexadeca-1(16),2,9,12,14-pentaene-4-carboxamide] |  | 0.0004 |
| CC(C)NCC(O)COc1cccc2[nH]ccc12 (centres undefined) [LB-46] | > 10 | 0.501 |
| CN1C[C@@H](NS(=O)(=O)N(C)C)C[C@@H]2c3cccc4c3c(cn4C)C[C@H]21 [MESULERGINE] | 0.01 | 0.0126 |
| CN1C[C@H](CNC(=O)OCc2ccccc2)C[C@@H]2c3cccc4c3c(cn4C)C[C@H]21 [METERGOLINE] | 0.01 | 0.00158 |
| CNS(=O)(=O)Cc1ccc2[nH]cc(CCN(C)C)c2c1 [Sumax] | 0.0251 | 0.1 |
| NCCc1c[nH]c2ccc(O)cc12 [[3H]-5-HT] |  | 0.0001 |
| COc1ccc2[nH]cc(CCN)c2c1 [tryptamine, 5-Methoxy] |  | 0.00025 |
